Experimental data taken from patent publication US20030044413A1, “Methods of limiting apoptosis of cells” (Regents of the University of Minnesota, priority 1998, published 2003).
Like-named read-outs stand apart in the source and are kept apart here.

Legend:
HuH-7 cells = test: Annexin V-biotin assay (phosphatidylserine externalization); format: cell-based, human; settings: 100 μM, 6 h
Procedure: Annexin V-Biotin assay. The annexin V-biotin apoptosis assay was performed on HuH-7 cells according to the manufacturer's recommendations (R & D Systems). […] The chromogenic signal generated from the binding of annexin V to exposed phosphatidylserine moieties was read at 450 nm using a microplate reader (Molecular Devices, Co., Menlo Park, Calif.).

rat primary hepatocytes = test: FACS analysis of ΔΨm and ROS, rat primary hepatocytes; format: cell-based; settings: for Peroxides Production (%) Inducer + UDCA: 100 μM UDCA pretreatment 60 min; for inhibition at 100 µM: Rattus norvegicus, Hepatocyte, 100 μM UDCA, read-out: % Inhibition of peroxides production; for Inhibition % Superoxide Anion / Inhibition % _Ψm: inhibition by UDCA
Procedure: A ΔΨm and ROS measurement. ΔΨm and ROS production were measured by FACScan (Becton Dickinson) analysis. Freshly isolated rat hepatocytes were cultured for 3 h as described above and then incubated with William's E medium supplemented with either 100 μM DCA, 100 μM UDCA, equal molar amounts of both, or no bile acid (control), for 6 h. Rat hepatocytes were also cultured with either 1% ethanol, 100 μM UDCA, ethanol+UDCA, or no addition (control) for 4 h. HuH-7 cells, Hep G2 cells, and human osteogenic sarcoma Saos-2 cells were incubated with TGF-β1, anti-Fas antibody or okadaic acid, respectively, for 48 h under the same conditions as outlined above. For combination studies, cells were pretreated with UDCA or hyodeoxycholic acid for 60 min prior to addition of DCA, ethanol, TGF-β1, anti-Fas antibody or okadaic acid. Aliquots of 1.0×10^6 cells were incubated for 15 min at 37° C. with 50 nM 3,3′-dihexyloxacarbocyanine iodide [DiOC6(3)], 2 μM dihydroethidium (HE), or 5 μM 2′,7′-dichlorofluorescin diacetate (H2DCFDA; Molecular Probes, Inc. Eugene, Oreg.) and analyzed by cytofluorometry (Cathcart et al., Anal. Biochem., 134, 111-116 (1983); Zamzami et al., J. Exp. Med., 181, 1661-1672 (1 995); Carter et al., J. Leukocyte Biol., 55, 253-258 (1994)).
Rat primary hepatocytes were incubated with 100 μM DCA and 1% ETOH for 6 h and 4 h, respectively; HuH-7 cells with 1 nM TGF-β1 for 48 h; Hep G2 cells with 0.5 μg/ml anti-Fas antibody (CH-11) for 48 h, and Saos-2 cells with 50 nM okadaic acid (OA) for 48 h. In each combination group, cells were pretreated with 100 μM UDCA alone for 60 min prior to addition of the inducer. Aliquots of 1.0×10^6 cells were incubated for 15 min at 37° C. with 5 μM 2′,7′-dichlorofluorescin diacetate (H2DCFDA) and analyzed by cytofluorometry.

HeLa cells = test: Okadaic acid-induced apoptosis, HeLa cells; format: cell-based, human
Procedure: HuH-7 cells were treated with 1 nM TGF-β1, 100 μM of either hyodeoxycholic acid, taurocholic acid, tauroursodeoxycholic acid (Sigma Chemical Co.) or glycoursodeoxycholic acid (Steraloids Inc., Wilton, N.H.), or a combination of TGF-β1 plus the individual bile acids for 72 h. HeLa and Cos-7 cells were incubated with 50 nM okadaic acid, 100 μM of either tauroursodeoxycholic acid or glycoursodeoxycholic acid, or a combination of okadaic acid plus the individual bile acids for 24 h. In the combination groups, cells were pretreated with the bile acid alone for 60 min prior to incuation with TGF-β1 or okadaic acid. In all studies, the medium was gently removed at the indicated times and scored for nonviable cells. The attached cells were fixed for morphologic evaluation of apoptosis.
Morphological evaluation of apoptosis. Morphology was performed as described previously (Oberhammer et al., Proc. Natl. Acad. Sci. USA 89, 5408-5412 (1992)). […] Fluorescence was visualized with a Zeiss standard fluorescence microscope (Carl Zeiss, Inc., Thornwood, N.Y.). […] Stained nuclei were scored by blind analysis and categorized according to the condensation and staining characteristics of chromatin. […] Three fields per dish of approximately 500 nuclei were counted; mean values are expressed as the percent of apoptotic nuclei.

astrocytes = test: Unconjugated bilirubin-induced apoptosis in astrocytes; format: cell-based, rat; settings: coincubation of UCB with UDCA

SMILES: C[C@H](CCC(=O)O)[C@H]1CC[C@H]2[C@@H]3CC[C@@H]4C[C@H](O)CC[C@]4(C)[C@H]3C[C@H](O)[C@]12C [DCA, deoxycholic acid]
- optical density at 450 nm (annexin V binding) relative to controls (HuH-7 cells): 0.27±0.06
- Peroxides Production (%) Inducer (rat primary hepatocytes; 100 μM DCA, 6 h, hepatocytes): 12.8 ± 0.9%

SMILES: C[C@H](CCC(=O)O)[C@H]1CC[C@H]2[C@@H]3[C@@H](O)C[C@@H]4C[C@H](O)CC[C@]4(C)[C@H]3CC[C@]12C [UDCA, ursodeoxycholic acid]
- optical density at 450 nm (annexin V binding) relative to controls (HuH-7 cells): 0.08±0.02
- percent apoptosis (HeLa cells; okadaic acid + UDCA): 20.5±7.1%
- Peroxides Production (%) Inducer + UDCA (rat primary hepatocytes; 100 μM DCA 6 h): 4.4 ± 1.5 %
- Peroxides Production (%) Inducer + UDCA (rat primary hepatocytes; 1% ETOH 4 h): 10.7 ± 3.6 %
- inhibition at 100 µM (rat primary hepatocytes; inducer DCA, hepatocytes): 65.8 ± 12.4%
- inhibition at 100 µM (rat primary hepatocytes; inducer ETOH, hepatocytes): 39.5 ± 12.6%
- Inhibition % Superoxide Anion (rat primary hepatocytes; inducer DCA, hepatocytes): 93.5 ± 17.2%
- Inhibition % _Ψm (rat primary hepatocytes; inducer DCA, hepatocytes): 60.2 ± 6.1 %
- Inhibition % Superoxide Anion (rat primary hepatocytes; inducer ETOH, hepatocytes): 86.6 ± 5.6%
- Inhibition % _Ψm (rat primary hepatocytes; inducer ETOH, hepatocytes): 61.7 ± 33.9%
- inhibition of apoptosis (astrocytes): over 50%

SMILES: C=C1[C@@H](O)[C@@H]2O[C@]3(CC[C@H](/C=C/[C@@H](C)[C@@H]4CC(C)=C[C@@]5(O[C@H](C[C@@](C)(O)C(=O)O)CC[C@H]5O)O4)O3)CC[C@H]2O[C@@H]1[C@@H](O)C[C@H](C)[C@H]1O[C@@]2(CCCCO2)CC[C@H]1C [okadaic acid]
- percent apoptosis (HeLa cells; okadaic acid alone): 50.0±14.9%
